The target of this experiment is human F508del-CFTR (Homo sapiens, UniProt P13569, DEL508-508). In words: F508del-CFTR cell surface expression (corrector activity), DiscoveRx ß-galactosidase complementation chemiluminescence assay in recombinant U2OS cell line.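 On all read-outs here: U2OS cells co-expressing ProLink-tagged F508del-CFTR and a membrane-anchored enzyme acceptor, where more surface CFTR restores β-galactosidase activity measured by chemiluminescence.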 The note with it: U2OS cells, 16h compound incubation; for EC50: EC50, F508del-CFTR cell surface expression, geomean of several measurements; for Emax: U2OS, in relation to the Emax of the corrector lumacaftor (=100%), arithmetic mean.
Chain of human F508del-CFTR (P13569 with tags, fused parts or gaps DEL508-508): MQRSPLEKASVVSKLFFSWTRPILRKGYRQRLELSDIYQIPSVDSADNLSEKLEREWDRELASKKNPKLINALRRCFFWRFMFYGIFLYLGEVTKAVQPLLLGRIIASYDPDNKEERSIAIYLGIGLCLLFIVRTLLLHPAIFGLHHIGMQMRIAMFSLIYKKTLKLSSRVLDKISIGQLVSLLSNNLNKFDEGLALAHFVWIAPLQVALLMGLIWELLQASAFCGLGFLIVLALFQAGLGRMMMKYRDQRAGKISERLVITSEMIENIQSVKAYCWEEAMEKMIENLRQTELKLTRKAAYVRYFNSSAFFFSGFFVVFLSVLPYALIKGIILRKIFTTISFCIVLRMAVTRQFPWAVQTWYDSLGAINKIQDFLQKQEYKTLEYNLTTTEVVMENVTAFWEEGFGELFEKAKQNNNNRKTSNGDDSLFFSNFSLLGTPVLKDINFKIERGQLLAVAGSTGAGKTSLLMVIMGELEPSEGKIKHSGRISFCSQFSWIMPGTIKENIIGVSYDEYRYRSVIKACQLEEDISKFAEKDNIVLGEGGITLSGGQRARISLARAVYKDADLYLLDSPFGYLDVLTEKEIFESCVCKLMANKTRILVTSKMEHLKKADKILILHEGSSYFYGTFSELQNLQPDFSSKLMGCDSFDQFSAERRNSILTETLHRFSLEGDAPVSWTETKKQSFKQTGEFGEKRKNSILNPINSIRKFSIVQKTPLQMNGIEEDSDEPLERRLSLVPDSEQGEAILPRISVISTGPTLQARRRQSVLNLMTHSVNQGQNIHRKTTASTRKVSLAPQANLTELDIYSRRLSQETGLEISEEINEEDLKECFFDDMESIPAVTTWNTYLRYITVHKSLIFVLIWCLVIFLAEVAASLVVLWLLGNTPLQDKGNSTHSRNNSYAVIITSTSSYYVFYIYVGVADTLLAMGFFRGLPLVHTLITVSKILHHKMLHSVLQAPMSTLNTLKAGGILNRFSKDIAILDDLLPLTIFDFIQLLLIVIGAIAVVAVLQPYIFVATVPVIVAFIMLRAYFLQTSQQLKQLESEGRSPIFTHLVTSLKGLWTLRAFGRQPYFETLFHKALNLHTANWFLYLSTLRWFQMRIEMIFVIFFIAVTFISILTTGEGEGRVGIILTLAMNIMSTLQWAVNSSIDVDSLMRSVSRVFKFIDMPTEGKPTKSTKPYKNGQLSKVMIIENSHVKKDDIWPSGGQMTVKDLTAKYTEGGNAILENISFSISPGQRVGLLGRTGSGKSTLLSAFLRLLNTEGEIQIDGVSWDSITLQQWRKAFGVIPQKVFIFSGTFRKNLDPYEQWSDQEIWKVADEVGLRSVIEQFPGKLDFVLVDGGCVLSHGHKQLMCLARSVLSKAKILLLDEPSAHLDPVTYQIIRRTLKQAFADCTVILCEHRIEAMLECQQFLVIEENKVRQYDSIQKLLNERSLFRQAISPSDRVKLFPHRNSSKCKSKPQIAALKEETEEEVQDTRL

For the compound `COc1nccc2c1C(=O)N[C@H](C(=O)NCCc1noc(C3CC3)n1)CC(=O)N(C)[C@@H](CC(C)C)C(=O)N(C)[C@H](CCc1nc(C(C)(C)C)no1)C(=O)N[C@H](Cc1ccccc1)CO2` [Example 881, (3R,6R,9S,13S)-3-benzyl-6-(2-(3-(tert-butyl)-1,2,4-oxadiazol-5-yl)ethyl)-N-(2-(5-cyclopropyl-1,2,4-oxadiazol-3-yl)ethyl)-9-isobutyl-16-methoxy-7,10-dimethyl-5,8,11,15-tetraoxo-2,3,4,5,6,7,8,9,10,11,12,13,14,15-tetradecahydropyrido[3,4-p][1]oxa[4,7,10,14]tetraazacycloheptadecine-13-carboxamide], the EC50 was found to be 0.309 µM and the Emax is 337%.
The like results for `COc1nccc2c1C(=O)N[C@H](C(=O)NCCc1noc(C3CC3)n1)CC(=O)N(C)[C@@H](CC(C)C)C(=O)N(C)[C@H](Cn1cc(-c3ccccc3)nn1)C(=O)N[C@H](Cc1ccccc1)CO2` [Example 882, (3R,6R,9S,13S)-3-benzyl-N-(2-(5-cyclopropyl-1,2,4-oxadiazol-3-yl)ethyl)-9-isobutyl-16-methoxy-7,10-dimethyl-5,8,11,15-tetraoxo-6-((4-phenyl-1H-1,2,3-triazol-1-yl)methyl)-2,3,4,5,6,7,8,9,10,11,12,13,14,15-tetradecahydropyrido[3,4-p][1]oxa[4,7,10,14]tetraazacycloheptadecine-13-carboxamide] were, in that order, 0.473 µM and 367%.
`COc1nccc2c1C(=O)N[C@H](C(=O)NCCc1noc(C3CC3)n1)CC(=O)N(C)[C@@H](CC(C)C)C(=O)N(C)[C@H](CCc1nc(C3CCCC3)no1)C(=O)N[C@H](Cc1ccccc1)CO2` [Example 883, (3R,6R,9S,13S)-3-benzyl-6-(2-(3-cyclopentyl-1,2,4-oxadiazol-5-yl)ethyl)-N-(2-(5-cyclopropyl-1,2,4-oxadiazol-3-yl)ethyl)-9-isobutyl-16-methoxy-7,10-dimethyl-5,8,11,15-tetraoxo-2,3,4,5,6,7,8,9,10,11,12,13,14,15-tetradecahydropyrido[3,4-p][1]oxa[4,7,10,14]tetraazacycloheptadecine-13-carboxamide]: the EC50 stood at 0.111 µM and the Emax was 344%.
`COc1cc(CCNC(=O)[C@@H]2CC(=O)N(C)[C@@H](CC(C)C)C(=O)N(C)[C@H](CCc3nc(C4CCCC4)no3)C(=O)N[C@H](Cc3ccccc3)COc3ccnc(OC)c3C(=O)N2)on1` [Example 884, (3R,6R,9S,13S)-3-benzyl-6-(2-(3-cyclopentyl-1,2,4-oxadiazol-5-yl)ethyl)-9-isobutyl-16-methoxy-N-(2-(3-methoxyisoxazol-5-yl)ethyl)-7,10-dimethyl-5,8,11,15-tetraoxo-2,3,4,5,6,7,8,9,10,11,12,13,14,15-tetradecahydropyrido[3,4-p][1]oxa[4,7,10,14]tetraazacycloheptadecine-13-carboxamide]: the EC50 turned out to be 0.096 µM and the Emax amounted to 385%.
The like results for `CC(C)C[C@H]1C(=O)N(C)[C@H](Cn2cc(-c3ccc(F)cn3)nn2)C(=O)N[C@H](Cc2ccccc2)COc2cnc3ccc(F)cc3c2C(=O)N[C@H](C(=O)NCCc2noc(C3CC3)n2)CC(=O)N1C` [Example 885, (3S,7S,10R,13R)-13-benzyl-N-(2-(5-cyclopropyl-1,2,4-oxadiazol-3-yl)ethyl)-20-fluoro-10-((4-(5-fluoropyridin-2-yl)-1H-1,2,3-triazol-1-yl)methyl)-7-isobutyl-6,9-dimethyl-1,5,8,11-tetraoxo-1,2,3,4,5,6,7,8,9,10,11,12,13,14-tetradecahydro-[1]oxa[4,7,10,14]tetraazacycloheptadecino[17,16-c]quinoline-3-carboxamide] were, in that order, 0.078 µM and 328%.
For `CC(C)C[C@H]1C(=O)N(C)[C@H](Cc2cc(C(C)(C)C)no2)C(=O)N[C@H](Cc2ccccc2)COc2cnc3ccc(F)cc3c2C(=O)N[C@H](C(=O)NCCc2noc(C3CC3)n2)CC(=O)N1C` [Example 886, (3S,7S,10R,13R)-13-benzyl-10-((3-(tert-butyl)isoxazol-5-yl)methyl)-N-(2-(5-cyclopropyl-1,2,4-oxadiazol-3-yl)ethyl)-20-fluoro-7-isobutyl-6,9-dimethyl-1,5,8,11-tetraoxo-1,2,3,4,5,6,7,8,9,10,11,12,13,14-tetradecahydro-[1]oxa[4,7,10,14]tetraazacycloheptadecino[17,16-c]quinoline-3-carboxamide], the EC50 stood at 0.015 µM and the Emax is 359%.
In the case of `CC(C)C[C@H]1C(=O)N(C)[C@H](CCc2nc(-c3ccc(F)cn3)no2)C(=O)N[C@H](Cc2ccccc2)COc2cnc3ccc(F)cc3c2C(=O)N[C@H](C(=O)NCCc2noc(C3CC3)n2)CC(=O)N1C` [Example 887, (3S,7S,10R,13R)-13-benzyl-N-(2-(5-cyclopropyl-1,2,4-oxadiazol-3-yl)ethyl)-20-fluoro-10-(2-(3-(5-fluoropyridin-2-yl)-1,2,4-oxadiazol-5-yl)ethyl)-7-isobutyl-6,9-dimethyl-1,5,8,11-tetraoxo-1,2,3,4,5,6,7,8,9,10,11,12,13,14-tetradecahydro-[1]oxa[4,7,10,14]tetraazacycloheptadecino[17,16-c]quinoline-3-carboxamide], the EC50 came out at 0.111 µM and the Emax turned out to be 340%.
On the same counts, the results for `Cc1cc2c(c3cccnc13)C(=O)N[C@H](C(=O)NCCn1nnc(C3CC3)n1)CC(=O)N(C)[C@@H](CC(C)C)C(=O)N1CCCC[C@@H]1C(=O)N[C@H](Cc1ccccc1)CO2` [Example 888, (9S,13S,19aR,22R)-22-benzyl-N-(2-(5-cyclopropyl-2H-tetrazol-2-yl)ethyl)-13-isobutyl-2,12-dimethyl-7,11,14,20-tetraoxo-7,8,9,10,11,12,13,14,17,18,19,19a,20,21,22,23-hexadecahydro-16H-pyrido[2′,1′:6,7][1]oxa[4,7,10,14]tetraazacycloheptadecino[16,17-f]quinoline-9-carboxamide] are 0.17 µM and 410%.
Take `Cc1cc2c3c(ccc2cn1)OC[C@@H](Cc1ccccc1)NC(=O)[C@@H](Cc1nc(C(F)(F)F)no1)N(C)C(=O)[C@H](CC(C)C)N(C)C(=O)C[C@@H](C(=O)NCCc1noc(C2CC2)n1)NC3=O` [Example 889, (3S,7S,10R,13R)-13-benzyl-N-(2-(5-cyclopropyl-1,2,4-oxadiazol-3-yl)ethyl)-7-isobutyl-6,9,20-trimethyl-1,5,8,11-tetraoxo-10-((3-(trifluoromethyl)-1,2,4-oxadiazol-5-yl)methyl)-1,2,3,4,5,6,7,8,9,10,11,12,13,14-tetradecahydro-[1]oxa[4,7,10,14]tetraazacycloheptadecino[16,17-f]isoquinoline-3-carboxamide]: the EC50 was found to be 0.034 µM and the Emax turned out to be 403%.
Consider `Cc1cc2c3c(ccc2cn1)OC[C@@H](Cc1ccccc1)NC(=O)[C@@H](Cc1nc(C(F)(F)F)no1)N(C)C(=O)[C@H](CC(C)C)N(C)C(=O)C[C@@H](C(=O)NCCn1nnc(C2CC2)n1)NC3=O` [Example 890, (3S,7S,10R,13R)-13-benzyl-N-(2-(5-cyclopropyl-2H-tetrazol-2-yl)ethyl)-7-isobutyl-6,9,20-trimethyl-1,5,8,11-tetraoxo-10-((3-(trifluoromethyl)-1,2,4-oxadiazol-5-yl)methyl)-1,2,3,4,5,6,7,8,9,10,11,12,13,14-tetradecahydro-[1]oxa[4,7,10,14]tetraazacycloheptadecino[16,17-f]isoquinoline-3-carboxamide], for which the EC50 is 0.034 µM and the Emax amounted to 409%.
In the case of `CC(C)C[C@H]1C(=O)N(C)[C@H](Cc2nc(-c3ccc(F)cn3)no2)C(=O)N[C@H](Cc2ccccc2)COc2ccc3ncc(F)cc3c2C(=O)N[C@H](C(=O)NC[C@@H](O)c2nc(C3CC3)no2)CC(=O)N1C` [Example 892, (3S,7S,10R,13R)-13-benzyl-N-((R)-2-(3-cyclopropyl-1,2,4-oxadiazol-5-yl)-2-hydroxyethyl)-20-fluoro-10-((3-(5-fluoropyridin-2-yl)-1,2,4-oxadiazol-5-yl)methyl)-7-isobutyl-6,9-dimethyl-1,5,8,11-tetraoxo-1,2,3,4,5,6,7,8,9,10,11,12,13,14-tetradecahydro-[1]oxa[4,7,10,14]tetraazacycloheptadecino[16,17-f]quinoline-3-carboxamide], the EC50 came to 0.467 µM and the Emax stood at 442%.
In the case of `CC(C)C[C@H]1C(=O)N(C)[C@H](CC(F)F)C(=O)N[C@H](Cc2ccccc2)COc2ccc3ncc(F)cc3c2C(=O)N[C@H](C(=O)NCCn2nnc(C3CC3)n2)CC(=O)N1C` [Example 893, (3S,7S,10R,13R)-13-benzyl-N-(2-(5-cyclopropyl-2H-tetrazol-2-yl)ethyl)-10-(2,2-difluoroethyl)-20-fluoro-7-isobutyl-6,9-dimethyl-1,5,8,11-tetraoxo-1,2,3,4,5,6,7,8,9,10,11,12,13,14-tetradecahydro-[1]oxa[4,7,10,14]tetraazacycloheptadecino[16,17-f]quinoline-3-carboxamide], the EC50 is 0.216 µM and the Emax was determined as 394%.
With `CCOCC[C@@H]1C(=O)N[C@H](Cc2ccccc2)COc2ccc3ncc(F)cc3c2C(=O)N[C@H](C(=O)NCCc2cc(C)no2)CC(=O)N(C)[C@@H](CC(C)C)C(=O)N1C` [Example 894, (3S,7S,10R,13R)-13-benzyl-10-(2-ethoxyethyl)-20-fluoro-7-isobutyl-6,9-dimethyl-N-(2-(3-methylisoxazol-5-yl)ethyl)-1,5,8,11-tetraoxo-1,2,3,4,5,6,7,8,9,10,11,12,13,14-tetradecahydro-[1]oxa[4,7,10,14]tetraazacycloheptadecino[16,17-f]quinoline-3-carboxamide], the EC50 worked out at 0.339 µM and the Emax is 431%.

The EC50 is the concentration at which the effect is half-maximal. For orientation: Emax means the greatest response seen or fitted, relative to the assay's reference.

The values above are taken from patent publication US20240208992A1, “MACROCYCLES AS CFTR MODULATORS” (Idorsia Pharmaceuticals Ltd, priority 2021, published 2024).
